Source: patent US9884066B2, “Bile acid-basic amino acid conjugates and uses thereof” (priority 2013, dated 2018)
Several values for one entry are separate records, joined by “and”; a condition that tells them apart may be missing. Equal values may be shown once. Read-outs that look alike come from different tables or passages of the source.

Key:
[1] = test system: mice fed a high fat diet (HFD); assay: High fat diet (HFD) model in mice, five-week feeding with supplemented diets
[2] = test system: livers of mice fed a high fat diet (HFD); assay: Histological evaluation of livers by H&E staining, scored by Modified Brunt Criteria (five-week HFD model); format: in vivo, C57BL mice; details: end of week 5; for Portal inflammation / Ballooning and disarray / Fibrosis: score per liver section; for Ballooning and disarray: * = and megakarya; for Fibrosis: ** = oval cell proliferation
Method: For liver histology, animals were sacrificed and liver tissues were removed and fixed in 4% formalin at room temperature. Liver sections were subjected to Hematoxylin-Eosin staining (PathoVet Veterinary Pathology Services, Rehovot, Israel).
Histological evaluation of livers was performed by H&E staining at the end of week 5. In the figure, arrows indicate micro and macrovesicular steatosis, and arrow heads indicate hepatocyte ballooning. […] This histological observation was in correlation with the elevated levels of blood liver enzymes SGOT and SGPT described above.

[3] = test system: mice fed a high fat diet (HFD); assay: Intraperitoneal glucose tolerance test (IPGTT) in HFD-fed mice; format: in vivo; details: week fourteen; glucose 2 g/kg i.p., 12 hours-fasted; FIG. 11
From the text: FIG. 11. Effect of CDCArg on insulin resistance as evaluated by intra-peritoneal glucose tolerance test (IPGTT). (A) IPGTT performed at weeks eight and (B) fourteen (before and after the beginning of treatment). Values are expressed as mean±SEM (n=8-9 animals per group). Means with * are statistically higher than Control group, p<0.05 (t.test (a) one way ANOVA, Post Hoc dunnett test (b)).

[4] = test system: mice fed a high fat diet (HFD); details: mouse, in vivo
[5] = test system: mice fed a high fat diet (HFD); details: for Liver weight: FIG. 12d
From the text: Mice were randomly divided into two dietary groups:
1) Control diet: low-fat diet (LFD), 16% calories from fat (n=5);
2) High-fat diet (HFD): 60% calories from fat (mainly palm stearin) (n=16).
In order to determine the effects of CDCArg following the onset of liver steatosis, mice were first treated for 10 weeks with HFD to develop hepatic fat accumulation. Thereafter, the HFD-fed mice were divided to two equal groups (n=8 in each group): (a) continued the previous HFD treatment, and (b) HFD+CDCArg 0.5% w/w. In this part of the experiment mice were pair-fed (15.5 kCal/day per mice). The LFD control group consumed on average the same amount of calories per day per mice. The duration of treatment with CDCArg was four (4) weeks. Food consumption and gain of weight were evaluated.
To assess the impact of CDCArg on intestinal absorption, fecal lipid contents were measured before and after CDCArg consumption. Total lipids were extracted from feces using Folch's method (Folch et al., 1957, J Biol Chem, 226:497-509) after collecting feces during weeks 9-10 and 12-13. […] The effect of CDCArg on insulin resistance was evaluated using intraperitoneal glucose tolerance test (IPGTT). Glucose tolerance was assessed in the mice during the eighth and fourteenth weeks of the study (before and after the beginning of treatment with CDCArg). IPGTT was performed in 12 hours-fasted mice by injecting glucose (2 g/kg in 20% solution) intraperitoneally. Blood samples were obtained by cutting the tail tip and glucose concentration was measured after 0, 30, 60, 90, and 120 minutes.

PPARα = assay: Liver gene expression, mRNA by reverse-transcription and real time PCR; format: in vivo, mice; details: GAPDH normalizing gene; FIG. 13B
From the text: (§1) FIG. 13. Effect of CDCArg on lipogenic gene expression and energy expenditure related genes in the liver. Treatments: mice were fed with LFD for 14 weeks or with HFD for 10 weeks. At week 10 the HFD group was divided randomly into two equal groups that were pair fed. One group received HFD, while the other group received HFD+CDCArg. mRNA levels of (A) PGC1α, (B) PPARα. (C) Protein level of sterol regulatory element binding protein 1c (SREBP1). *p<0.05, statistically different from control by student t-test. GAPDH was used as housekeeping normalizing gene.
(§2) Gene expression analyses of PPARα and PGC1α were performed by quantifying mRNA levels by reverse-transcription and real time PCR. GAPDH (glyceraldehyde 3-phosphate dehydrogenase) was used as housekeeping normalizing gene. The following primers were used: […]

PGC1α = assay: as above; format: in vivo, mice; details: GAPDH normalizing gene; FIG. 13A
From the text: as §1, §2

AMPK = assay: Liver AMPK and pAMPK levels by Western blot; format: in vivo, mice
Method: The levels of AMPK and pAMPK were analyzed using Western blot analysis.

SREBP1c = assay: Liver protein level by Western blot; format: in vivo, mice; details: beta-actin as control; FIG. 13C
From the text: as §1
SREBP1c was analyzed by Western blot analysis using beta-actin as control. Abs: Anti SREBP-1 Santa Cruse (Sc-367); Secondary goat Anti-Rabbit IgG, Jackson ImmunoResearch, Mouse Anti-Actin (612656) BD Transduction Laboratories. Secondary goat Anti-mouse IgG, Jackson ImmunoResearch.

Structure (SMILES): N=C(N)NCCC[C@H](N)C(=O)O [Arg, L-arginine, reference compound]
- Average triglycerides in the blood ([1]; end of week 5, FIG. 5a): higher level of blood triglycerides
- Average total cholesterol in the blood ([1]; end of week 5, compared to control low fat diet, FIG. 4): significantly increased levels of total blood cholesterol
- Liver damage by histology (H&E staining) ([2]; FIG. 9): increased liver damage
- Portal inflammation [2]: 0
- Ballooning and disarray [2]: 0
- Fibrosis [2]: 0

Structure (SMILES): CCOC(=O)[C@H](CCCNC(=N)N)NC(=O)CC[C@@H](C)[C@H]1CC[C@H]2[C@@H]3[C@H](O)C[C@@H]4C[C@H](O)CC[C@]4(C)[C@H]3CC[C@]12C [CDCArg, Chenodeoxycholyl-Arginine-Ethyl Ester]
- Area under the curve of the glycemic response (IPGTT) [3]: decreasing the area under the curve of the glycemic response
- Peak glucose values in the IPGTT [3]: lowering the peak glucose values
- General toxicity (plasma creatinine, sodium, potassium and chloride levels) [4]: without toxicity effects
- Saturated fat-induced liver damage (blood SGOT, SGPT) [4]: did not potentiate saturated fat-induced liver damage
- Body weight gain ([5]; HFD+CDCArg 0.5% w/w for 4 weeks after 10 weeks HFD, vs continued HFD, FIG. 10a): prevented this weight gain
- Adipose tissue weight ([5]; HFD+CDCArg compared to the HFD group, FIG. 10b): substantially lower
- Liver micro and macro steatosis (histological evaluation) ([5]; HFD+CDCArg vs HFD group, FIG. 12e): lesser liver micro and macro steatosis
- Liver weight ([5]; HFD+CDCArg vs HFD group): significantly lower
- Liver weight ([5]; HFD+CDCArg vs control (LFD) group): even lesser than in control
- Alkaline phosphatase levels in plasma ([5]; mouse, in vivo): not significantly altered
- Plasma albumin levels ([5]; mouse, in vivo): significantly higher
- SGPT levels ([5]; plasma, HFD+CDCArg compared with the HFD group, FIG. 12a): significantly lower
- SGOT levels ([5]; plasma, HFD+CDCArg compared with the HFD group, FIG. 12b): significantly lower
- Fat contents in feces ([5]; weeks 12-13, Folch's method, FIG. 10d): significantly higher
- PPARα mRNA level in the liver (PPARα): activated
- PGC1α mRNA level in the liver (PGC1α): activated
- Ratio of phosphorylated AMPK (pAMPK) to AMPK (AMPK): tending to be higher
- Average weight of adipose tissue (testicular fat) ([1]; end of week 5, compared to HFD alone or HFD+Arg, FIG. 3): significantly lower increase in testicular fat weight
- Average liver weight ([1]; end of week 5, compared to control diet, FIG. 7): no difference in liver weight compared to control
- Average body weight (increase) ([1]; five weeks, among groups that consumed a high fat diet, FIG. 2): lowest increase in body weight
- Plasma level of insulin ([1]; five weeks, compared to the HFD group, FIG. 8b): significantly decreased
- Plasma level of leptin ([1]; five weeks, compared to the HFD group, FIG. 8c): significantly decreased
- SREBP1c protein expression in the liver (SREBP1c): suppress the protein expression
- Portal inflammation [2]: 0 and 1
- Ballooning and disarray [2]: 0
- Fibrosis [2]: 0
